According to US20160109352A1, “METHODS AND APPARATUS FOR HIGH-THROUGHPUT LABEL-FREE CELL ASSAY” (INDUSTRY-ACADEMIC COOPERATION FOUNDATION YONSEI UNIVERSITY, priority 2014, published 2016):

Test system: cells
Experiment: label-free cell assay by optical interference phase microscope
Format: cell-based
Settings: for change in measurement values (phase) depending on concentration, by time: dosed in different concentration, measured by time (FIG. 5)
Text: FIG. 4 is a view showing an example of an image of cells photographed by an optical interference phase microscope beneath the transparent medium of the high-throughput label-free cell assay system.
FIG. 5 is a view showing an example of a measurement value by time in the high-throughput label-free cell assay system in a case that picolinic acid and histamine are separately given to cells in different concentration.

Row | SMILES | change in measurement values (phase) depending on concentration, by time | number of observed cells in optical interference phase image (half an hour after dosing, untreated cells showed no change after 30 minutes)
1 | NCCc1c[nH]cn1 [histamine] | remarkable changes in measurement values depending on concentration were observed | –
2 | O=C(O)c1ccccn1 [picolinic acid] | remarkable changes in measurement values depending on concentration were observed | remarkably reduced
